Experimental data from patent US20230256004A1, “COMPOSITIONS AND METHODS FOR TREATING MOOD DISORDERS AND CIRCADIAN RHYTHM SLEEP DISORDERS” (Light Aqua LLC, priority 2020, published 2023).

Experiments:
[1] = system: Major Depressive Disorder; experiment: proposed treatment of Major Depressive Disorder with deuterium oxide/scopolamine solution; format: in vivo, human; settings: Major Depressive Disorder subjects; proposed experiment
[2] = system: humans; settings: acute treatment; 1% of total body water versus 15% toxic
[3] = system: circadian rest/activity cycle; settings: cited from earlier work
[4] = system: rest/activity clock; settings: cited from earlier work
[5] = system: fish and tadpoles; settings: cited from earlier work
[6] = system: rats and mice; settings: cited from earlier work
[7] = system: mammals; settings: in vivo; cited from earlier work
[8] = system: humans; settings: cited from earlier work
[9] = system: one-celled algae; settings: in vivo; cited from earlier work
[10] = in vivo; cited from earlier work

## [2H]O[2H] [deuterium oxide]
[1]
  predicted time for treatment regimen to take effect: ≤ 2 days
[2]
  estimated Therapeutic Index (ratio of toxic dose to therapeutic dose): about 15
[3]; mice, 5% deuterium oxide, Dowse 1972
  time for chronomutagenic effect to take effect: ≤ 24 h
[3]; white mice, maximum 30% deuterium oxide dose administered, Suter and Rawson 1968
  increase in period length of the activity rest cycle: ≤ 6%
[4]; hamsters, Richter 1977
  deuterium oxide concentration at which circadian rhythm began to fluctuate: 5%
  drinking-water deuterium oxide concentration at which rest/activity cycle was freed from entrainment by light/dark: 10%
[4]; hamsters, on average, linear response, no lower threshold
  slowing of circadian rhythms per 5% deuterium oxide concentration increase in total body water: about 1%
[4]; one hamster, Richter 1977
  deuterium oxide concentration at which circadian rhythm began to fluctuate, one hamster: 1%
[5]
  heavy water concentration survived long-term: 30%
[6]; in vivo
  body water replacement at which intoxication signs and symptoms occur: over 15%
  deuterium oxide concentration recommended as safe long term: 5%
[6]; rats and mice
  body water deuterium oxide concentration producing coma and then death: 30-35%
[7]
  drinking water concentration of deuterium oxide safe long term: 5%
[8]; humans, Wallace 1995
  concentration in human fluids found not to be toxic over short time periods: ≤ 23%
[8]; in vivo
  acute replacement of total body water with no evident adverse effects: 15-23%
  adverse effects: no adverse effects
  adverse effects after one liter: severe vertigo with emesis
  deuterium oxide concentration considered safe long term: 1%
  dose at which positional ocular nystagmus was observed: 25 to 50 mL
  duration of nystagmus: up to 140 minutes
  harmful effects in babies: no observed harmful effects
  onset of nystagmus post ingestion: about 20 minutes
  onset of vertigo after dose: 30 min
  reactions to deuterium oxide: short-term vertigo in two of the subjects
  sensitivity of humans to toxic effects compared to mice: roughly 5 times
  threshold dosage for noticeable side-effects: 70 to 140 g
  total body water concentration considered toxic threshold: ≥ 15%
[9]
  deuterium oxide concentration survived long-term: 100%
[10]
  elimination half-life: up to 10 days
  metabolites: no metabolites
